Patent US11365203B2, “Fluorescent dye and preparation method and use thereof” (Fluorescence Diagnosis (shanghai) Biotech Company Ltd., priority 2016, dated 2022)

Assay: Fluorescence emission spectra of molecular rotors in glycerin and methanol
Format: physicochemical
Conditions: for Maximum Emission Wavelength: 1×10^−5 M in glycerin and methanol, excited at maximum excitation wavelength of each dye; for Fluorescence Intensity Ratios in Glycerol/Methanol: 1×10^−5 M, glycerol vs methanol solution
Experimental: The fluorescent dyes (molecular rotors) prepared in Examples 1-68 were separately dissolved in dimethyl sulfoxide to prepare respectively a mother liquor having a concentration of 1×10^−2 M, and each of the mother liquors was added individually to glycerin and methanol, and mixed uniformly, thereby solutions of a final concentration of 1×10^−5 M were prepared individually. According to the different fluorescent dyes, the fluorescence emission spectra of the fluorescent dyes were detected with the maximum excitation wavelengths of respective fluorescent dyes successively under the same conditions.

| Compound | Maximum Emission Wavelength [nm] | Fluorescence Intensity Ratios in Glycerol/Methanol |
| --- | --- | --- |
| 6-[2-cyano-2-(2-phenylpropionazole)-vinyl]-2-dimethylamino-thieno[3,2-B:2′,3′-D]thiophene [Molecular Rotor 12] | 655 | 655 |
| CN(CCOCCCS(=O)(=O)O)c1cc2sc(C=C(C#N)C#N)cc2s1 [Molecular Rotor 4, 6-(2,2-dicyano-vinyl)-2-[N-methyl-N-(3-sulfonic acid propyloxyethyl)]-thieno[3,2,b]thiophene] | 557 | 892 |
| CNc1cc2sc(/C=C(\C#N)C(=O)O)cc2s1 [Molecular Rotor 5, 6-(2-cyano-2-formic acid)-2-methylamino-thieno[3,2,b]thiophene] | 555 | 1980 |
| COCCOCCOCCOCCOCCN(C)c1cc2sc(/C=C3\N=C(C)N(C)C3=O)cc2s1 [Molecular Rotor 6] | 585 | 1453 |
| COCCNC(=O)/C(C#N)=C/c1cc2sc(N(C)CCC#N)cc2s1 [Molecular Rotor 7] | 555 | 1877 |
| CC1(C)OC(=O)C(C#N)=C1c1cc2sc(O)cc2s1 [Molecular Rotor 10] | 520 | 851 |
| CN(C)c1cc2sc3cc(/C=C(\C#N)C(=O)OC(C)(C)C)sc3c2s1 [Molecular Rotor 11, 6-(2-cyano-2-tert-butyl formatevinyl)-2-dimethylamino-thieno[3,2-B:2′,3′-D]thiophene] | 620 | 568 |
| CN(CC(=O)O)c1cc2sc3cc(/C=C(\C#N)c4nc5ccccc5s4)sc3c2s1 [Molecular Rotor 13, 6-[2-cyano-2-(1,3-benzothiazol-2-yl)-vinyl]-2-N-m ethylamino-N-acetic acid-dithiophene[3,2-B:2′3′-D]thiophene] | 690 | 352 |
| CN(C)c1cc2sc3cc(C=C(C#N)C#N)sc3c2s1 [Molecular Rotor 14] | 620 | 681 |
| COCCNC(=O)/C(C#N)=C/c1cc2sc3cc(N4CCCC4)sc3c2s1 [Molecular Rotor 15] | 620 | 799 |
| CN(CC(O)C(O)C(O)C(O)CO)c1cc2sc3cc(/C=C(\C#N)C(=O)O)sc3c2s1 (stereo not shown) [Molecular Rotor 16] | 620 | 951 |
| COC(=O)/C(C#N)=C/c1cc2sc3cc(N(CC(=O)O)CC(=O)O)sc3c2s1 [Molecular Rotor 17] | 618 | 888 |
| COCCOCCOCCOCCOCCOCCOCCOCCOCCOCCOCCOCCOCCOCCOCCNc1cc2sc3cc(/C=C4\N=C(C)N(C)C4=O)sc3c2s1 [Molecular Rotor 18] | 630 | 678 |
| CN1C(=O)/C(=C/c2cc3sc4cc(N(CCO)CCO)sc4c3s2)N=C1c1ccccc1 [Molecular Rotor 19] | 650 | 791 |
| CN1C(=O)/C(=C/c2cc3sc4cc(N(CCCl)CCCl)sc4c3s2)N=C1/C=C/c1ccccc1 [Molecular Rotor 20] | 690 | 536 |
| CCOC(=O)/C(C#N)=C/c1cc2sc3cc(N4CCOCC4)sc3c2s1 [Molecular Rotor 21] | 620 | 544 |
| CN(CCO)c1ccc2cc(/C=C(\C#N)c3nc4ccccc4o3)sc2c1 [Molecular Rotor 23] | 608 | 568 |
| N#C/C(=C\c1cc2ccc(N(CCO)CCO)cc2s1)c1nc2ccccc2s1 [Molecular Rotor 24] | 608 | 912 |

| Compound | Maximum Emission Wavelength [nm] | Fluorescence Intensity Ratios in Glycerol/Methanol |
| --- | --- | --- |
| CCCCCCCCCCN(CCCCCCCCCC)c1ccc2cc(C=C(C#N)C#N)sc2c1 [Molecular Rotor 25] | 570 | 615 |
| CN1C(=O)/C(=C\c2cc3ccc(N(C)CCOCCC(=O)O)cc3s2)N=C1c1ccccc1 [Molecular Rotor 26] | 610 | 712 |
| CCCCN(CC(O)CO)c1ccc2cc(/C=C3/N=C(C)N(C)C3=O)sc2c1 (stereo not shown) [Molecular Rotor 27] | 600 | 601 |
| CCCCN(CCO)c1ccc2cc(/C=C3N=C(/C=C/c4ccccc4)N(C)C/3=O)sc2c1 [Molecular Rotor 28] | 650 | 569 |
| COCCOCCOCCOCCOCCN(C)c1ccc2cc(/C=C(\C#N)C(=O)O)sc2c1 [Molecular Rotor 29] | 570 | 515 |
| COCCNC(=O)/C(C#N)=C/c1cc2ccc(OC)cc2s1 [Molecular Rotor 30] | 520 | 513 |
| COC(=O)/C(C#N)=C/c1cc2ccc(O)cc2s1 [Molecular Rotor 31] | 535 | 572 |
| COc1c(/C=C(\C#N)C(=O)OC(C)(C)C)sc2c(OC)c(N(C)C)sc12 [Molecular Rotor 32] | 570 | 612 |
| COc1c(/C=C(\C#N)C(=O)O)sc2c(OC)c(N(C)C)sc12 [Molecular Rotor 33] | 565 | 531 |
| CN(C)c1ccc2c(c1)sc1cc(C=C(C#N)C#N)sc12 [Molecular Rotor 34] | 626 | 1012 |
| CN(CCO)c1ccc2c(c1)sc1cc(/C=C(\C#N)C(=O)OC(C)(C)C)sc12 [Molecular Rotor 35] | 626 | 476 |
| COCCNC(=O)/C(C#N)=C/c1cc2sc3cc(N(CCO)CCO)ccc3c2s1 [Molecular Rotor 36] | 628 | 901 |
| CNc1ccc2c(c1)sc1cc(/C=C(\C#N)C(=O)O)sc12 [Molecular Rotor 37] | 627 | 879 |
| COCCOCCOCCOCCOCCN(C)c1ccc2c(c1)sc1cc(/C=C(\C#N)c3nc4ccccc4o3)sc12 [Molecular Rotor 38] | 650 | 623 |
| CN(CCC#N)c1ccc2c(c1)sc1cc(/C=C(\C#N)c3nc4ccccc4s3)sc12 [Molecular Rotor 39] | 667 | 541 |
| CCCCN(CCO)c1ccc2c(c1)sc1cc(/C=C3/N=C(c4ccccc4)N(C)C3=O)sc12 [Molecular Rotor 40] | 659 | 652 |
| CN(C)c1cc2cc3sc(C=C(C#N)C#N)cc3cc2s1 [Molecular Rotor 41] | 558 | 875 |
